Measurements as given in patent publication US11396517B1, “Exo-aza spiro inhibitors of menin-MLL interaction” (Janssen Pharmaceutica NV, priority 2017, dated 2022).
Read-outs that look alike come from different tables or passages of the source.

Legend:
MV-4-11 [1] = experiment: Proliferation assay A (spheroid assay) MV-4-11; type: cell-based, human; settings: MV-4-11 cells, 8 d, AUC of confluence against time, absolute IC50, read-out: (3a) Spheroid assay MV-4-11 (IC50(μM)) Assay A
Protocol: (§1) 3a) Proliferation Assay A
(§2) The anti-proliferative effect of menin/MLL protein/protein interaction inhibitor test compounds was assessed in human leukemia cell lines. The cell lines MV-4-11 and MOLM14 harbor MILL translocations and express the MILL fusion proteins MLL-AF4 and MLL-AF9, respectively, as well as the wildtype protein from the second allele. […] K562 was used as a control cell line containing two MLL wildtype alleles in order to exclude compounds that display general cytotoxic effects.
(§3) MV-4-11 and MOLM14 were cultured in RPMI-1640 (Sigma Aldrich) supplemented with 10% fetal bovine serum (HyClone), 2 mM L-glutamine (Sigma Aldrich) and 50 μg/ml gentamycin (Gibco). K562 were propagated in RPMI-1640 (Sigma Aldrich) supplemented with 20% fetal bovine serum (HyClone), 2 mM L-glutamine (Sigma Aldrich) and 50 μg/ml gentamycin (Gibco).
(§4) In order to assess the anti-proliferative effects, 1,500 MV-4-11, 300 MOLM14 or 750 K562 cells were seeded in 200 μl media per well in 96-well round bottom, ultra-low attachment plates (Costar, catalogue number 7007). Cell seeding numbers were chosen based on growth curves to ensure linear growth throughout the experiment. Test compounds were added at different concentrations and the DMSO content was normalized to 0.3%. Cells were incubated for 8 d at 37° C. and 5% CO2. Spheroid like growth was monitored in real-time by live-cell imaging (IncuCyteZOOM, Essenbio, 4× objective) acquiring one image every four hours for 8 d. Confluence (%) as a measure of spheroid size was determined using an integrated analysis tool.
(§5) In order to determine the cumulative effect of the test compounds over time, the area under the curve (AUC) in a plot of confluence against time was calculated. Confluence at the beginning of the experiment (t=0) was used as baseline for the AUC calculation.
(§6) Absolute IC50 values were calculated according to the following procedure: % Control=(AUC sample/AUC control)*100
(§7) AUC control mean AUC of control values (cells without compound/DMSO as vehicle control)
(§8) A non-linear curve fit was applied using the least squares (ordinary) fit method to the plot of % control versus compound concentration. Based on this, the absolute IC50 value (half maximal inhibitory concentration of the test compound causing an anti-proliferative effect of 50% relative to the vehicle control) was calculated.

menin = target: T1, menin (Homo sapiens, UniProt O00255, T541A); experiment: Menin/MLL homogenous time-resolved fluorescence (HTRF) assay; type: binding
T1 construct: Menin (a.a. 1-610-6×his tag)
T1 sequence (O00255 with tags, fused parts or gaps T541A): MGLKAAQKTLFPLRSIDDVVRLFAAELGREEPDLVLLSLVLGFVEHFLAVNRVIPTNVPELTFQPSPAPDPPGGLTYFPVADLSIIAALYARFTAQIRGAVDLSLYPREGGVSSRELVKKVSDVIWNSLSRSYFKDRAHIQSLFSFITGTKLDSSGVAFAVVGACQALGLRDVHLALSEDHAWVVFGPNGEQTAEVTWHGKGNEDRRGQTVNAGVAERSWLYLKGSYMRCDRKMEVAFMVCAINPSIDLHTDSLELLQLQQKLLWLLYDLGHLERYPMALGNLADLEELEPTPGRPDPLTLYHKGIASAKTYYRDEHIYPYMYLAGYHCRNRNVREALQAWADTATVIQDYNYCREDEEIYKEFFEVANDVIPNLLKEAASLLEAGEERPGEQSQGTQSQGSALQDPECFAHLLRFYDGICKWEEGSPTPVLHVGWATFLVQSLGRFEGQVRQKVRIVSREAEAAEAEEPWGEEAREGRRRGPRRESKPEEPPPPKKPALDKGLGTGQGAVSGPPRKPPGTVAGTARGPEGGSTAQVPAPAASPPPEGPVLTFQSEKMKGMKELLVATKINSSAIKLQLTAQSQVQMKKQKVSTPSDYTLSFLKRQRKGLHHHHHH
In short: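 Displacement of 75 nM FITC-MBM1 from terbium-cryptate-labeled His-tagged menin 1-610 ([…]) was read as the 520/490 nm HTRF ratio. Compound (11-point, 3-fold series) got 5 min with menin before peptide, then 15 min at ambient; 0.5% DMSO, Tris pH 7.5.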

MOLM14 [2] = experiment: Proliferation assay A (spheroid assay) MOLM14; type: cell-based, human; settings: MOLM14 cells, 8 d, AUC of confluence against time, absolute IC50, read-out: (3a) Spheroid assay MOLM14 (IC50(μM)) Assay A
Protocol: as §1, §2, §3, §4, §5, §6, §7, §8

MV-4-11 [3] = experiment: Proliferation assay B (spheroid assay) MV-4-11; type: cell-based, human; settings: Homo sapiens, MV4-11, 192 h, MV-4-11 cells, confluence at day 8, absolute IC50; read-out: (3b) Spheroid assay MV-4--11 (IC50(μM)) Assay B
In short: (§9)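 IC50 derived from % effect on day-8 imaged confluence, scaled between DMSO-treated cells (high) and 1 μM staurosporine (low), using a variable-slope fit constrained 0-100%. Cells seeded as spheroids in ultra-low-attachment plates and exposed to compound for 8 days, 0.3% DMSO.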

MOLM14 [4] = experiment: Proliferation assay B (spheroid assay) MOLM14; type: cell-based, human; settings: Homo sapiens, MOLM-14, 192 h, MOLM14 cells, confluence at day 8, absolute IC50; read-out: (3b) Spheroid assay MOLM14 (IC50(μM)) Assay B
In short: as §9

[5] = location 2, read-out: (2) location 2 Menin HTRF assay (IC50 (nM))
[6] = location 1, read-out: (2) location 1 Menin HTRF assay (IC50 (nM))

IC50 (MV-4-11 [1]; Homo sapiens, MV4-11, 192 h) [µM]	IC50 (menin; [5]) [nM]	IC50 (MOLM14 [2]; Homo sapiens, MOLM-14, 192 h) [µM]	IC50 (MV-4-11 [3]) [µM]	IC50 (MOLM14 [4]) [µM]	IC50 (menin; [6]) [nM]	IC50 (MV-4-11 [1]) [µM]	IC50 (MOLM14 [2]) [µM]	Structure (SMILES)
1.65	20.8	2.52						N#CCc1ccc(NC2CC3(CCN(c4ncnc5sc(CC(F)(F)F)cc45)C3)C2)cc1F (mixture of isomers) [Compound 168]
3.83	27.1	> 3.75						FC(F)(F)Cc1cc2c(N3CCC4(CC(Nc5ccc6cc(C(F)(F)F)[nH]c6c5)C4)C3)ncnc2s1 (mixture of isomers) [Compound 314]
> 3.75	51.4		> 3.75	> 3.75				O=c1[nH]c2ccc(NC3CC4(CCN(c5ncnc6sc(CC(F)(F)F)cc56)C4)C3)cc2o1 (mixture of isomers) [Compound 322]
2.84	14.6	> 3.75						CNc1nc(N2CCC3(CC(Nc4ccc(CC#N)cc4)C3)C2)c2cc(CC(F)(F)F)sc2n1 (mixture of isomers) [Compound 390]
> 3.75	22.8	> 3.75						N#CCc1ccc(NC2CCC3(C2)CN(c2ncnc4sc(CC(F)(F)F)cc24)C3)cc1 (racemic) [Compound 278]
> 3.75	94.2		> 3.75	> 3.75				N#CCc1ccc(NC2CCC3(C2)CN(c2nc(N)nc4sc(CC(F)(F)F)cc24)C3)cc1 (racemic) [Compound 387]
0.75	10	2.39			75.7			FC(F)(F)Cc1cc2c(N3CC[C@@]4(CC[C@@H](NCc5ccccc5)C4)C3)ncnc2s1 (single isomer, unassigned) [Compound 3]
5.11	2050	4.45						FC(F)(F)Cc1cc2c(N3CCC4(CCC(Nc5ccccc5)C4)C3)ncnc2s1 (single isomer, unassigned) [Compound 33]
0.28	7	1.27						O=c1[nH]c2ccc(CNC3CCC4(C3)CN(c3ncnc5sc(CC(F)(F)F)cc35)C4)cc2o1 (single isomer, unassigned) [Compound 55]
	3.6					0.09	0.44	O=c1[nH]c2cc(CNC3CCC4(C3)CN(c3ncnc5sc(CC(F)(F)F)cc35)C4)ccc2o1 (single isomer, unassigned) [Compound 57]
3.2	23.2	3.46						COc1nc(N2CCC3(CC(NCc4ccccc4)C3)C2)c2cc(CC(F)(F)F)sc2n1 (single isomer, unassigned) [Compound 60]
	3.6		0.06	0.44		0.04		CNC(=O)c1ccc(NC2CC3(CCN(c4ncnc5sc(CC(F)(F)F)cc45)C3)C2)cc1 (single isomer, unassigned) [Compound 94]
	5.2	> 3.75				0.53		O=c1[nH]c2ccc(CNC3CCC4(C3)CN(c3ncnc5sc(CC(F)(F)F)cc35)C4)cc2[nH]1 (single isomer, unassigned) [Compound 108]
3.67	37.5	> 3.75						FC(F)(F)Cc1cc2c(N3CCC4(CC(Nc5ccccc5)C4)C3)ncnc2s1 (single isomer, unassigned) [Compound 149]
0.9	8.4	3.05						N#CC1(c2ccc(NC3CC4(CCN(c5ncnc6sc(CC(F)(F)F)cc56)C4)C3)cc2)CC1 (single isomer, unassigned) [Compound 172]
1.11	62.7	1.78						CC(C)(N[C@H]1CCC2(C1)CN(c1ncnc3sc(CC(F)(F)F)cc13)C2)c1ccccc1 (single isomer, unassigned) [Compound 281]
	78.2	3.82				2.25		N#CCc1ccc(NC2CC3(CCN(c4ncnc5sc(CC(F)(F)F)cc45)C3)C2)cc1 (single isomer, unassigned) [Compound 306]
> 3.75	86.8	1.99						Nc1nc(N2CCC3(CC(Nc4ccc5[nH]c(=O)oc5c4)C3)C2)c2cc(CC(F)(F)F)sc2n1 (single isomer, unassigned) [Compound 386]
0.17	5	0.79			3.7			FC(F)(F)Cc1cc2c(N3CCC4(CCC(NCc5ccccc5)CC4)C3)ncnc2s1 (stereo not drawn) [Compound 1]
0.39	0.8	2.3			5.9			O=c1[nH]c2ccc(CNC3CCC4(C3)CN(c3ncnc5sc(CC(F)(F)F)cc35)C4)cc2[nH]1 (stereo not drawn) [Compound 14]
0.25	2.2	1.29						O=c1[nH]c2ccc(CNC3CCC4(C3)CN(c3ncnc5sc(CC(F)(F)F)cc35)C4)cc2o1 (stereo not drawn) [Compound 15]
0.03	2	0.19						O=c1[nH]c2cc(CNC3CCC4(C3)CN(c3ncnc5sc(CC(F)(F)F)cc35)C4)ccc2o1 (stereo not drawn) [Compound 16]
1.36	7.2	3.51						FC(F)(F)Cc1cc2c(N3CC4(CCC(NCc5cccc(-c6cc[nH]n6)c5)C4)C3)ncnc2s1 (stereo not drawn) [Compound 17]
3.13	90.9	2.64						CC(C)N(C)CC1CC2(CCN(c3ncnc4sc(CC(F)(F)F)cc34)C2)C1 (stereo not drawn) [Compound 40]
1.24	43.8	0.69						CC(NC1CCC2(C1)CN(c1ncnc3sc(CC(F)(F)F)cc13)C2)c1ccccc1 (stereo not drawn) [Compound 42]
2.08	11.3	2.61						N#CCc1ccc(NC2CC3(CCN(c4ncnc5sc(CC(F)(F)F)cc45)C3)C2)cc1 (stereo not drawn) [Compound 44]
0.81		2.46			61.3			CC(C)NC1CC2(CCN(c3ncnc4sc(CC(F)(F)F)cc34)C2)C1 (stereo not drawn) [Compound 51]
0.28	4.5	0.85						COc1nc(N2CCC3(CC(NCc4ccccc4)C3)C2)c2cc(CC(F)(F)F)sc2n1 (stereo not drawn) [Compound 59]
0.1	2.4	0.29						CNc1nc(N2CCC3(CC(NCc4ccccc4)C3)C2)c2cc(CC(F)(F)F)sc2n1 (stereo not drawn) [Compound 61]
1.01	44.3	1.13						N#CCc1ccc(NC2CC3(CCN(c4ncnc5sc(CC(F)(F)F)cc45)C3)C2)c(F)c1 (stereo not drawn) [Compound 63]
